Source: patent US8076485B2, “Methylphenidate derivatives and uses of them” (priority 2005, dated 2011)

Legend:
IL-8 [1] = assay: IL-8 production by CD3/CD28-activated TRiPS cell line (ELISA); type: cell-based, human; conditions: 15 μg/ml; CD3/CD28 Dynabeads, 24 hours
[2] = system: Jurkat T-lymphocyte leukemia cell line; assay: Jurkat cell viability (ETH-D1 / calcein AM); type: cell-based; conditions: Jurkat cells, 72 hours, control 20.85% ± 1.42%
Method: The Jurkat T-lymphocyte leukemia cell line was obtained from American Type Culture Collection (ATCC), Rockville, Md. (catalog no. TIB-152). Jurkat cells, at 1×10^5 cells/ml, were cultured at 37° C. and 5% CO2 in IMDM medium (ATCC) with 10% FCS for 72 hours with 7.5 μg/ml or 15 μg/ml of the compound of formula II (Cpd II). Following the incubation, the cells were washed with Hepes buffered saline, split into three equal volumes, and then incubated with 5 μM ethidium bromide dimer-1 (ETH-D1) (obtained from Molecular Probes) and 5 μM calcein AM solution (obtained from Promega) for one hour at 37° C. and 5% CO2 in 96-well culture plates to assay for cell viability. The fluorescence in each well was measured using a plate reader at excitation/emission 485/530 nm and 530/645 nm. Relative percentage of dead to live cells was calculated by dividing ETH-D1 fluorescence by calcein AM fluorescence.

NFκB = assay: Activated NFκB in TNFα- or VEGF-treated HIAECs (TransAM assay); type: cell-based; conditions: Homo sapiens, VEGF 10 ng/ml, Cpd II 15 μg/ml, read-out: Percent Inhibition (NFκB)
Method: Passage 8 (human iliac artery endothelial cells (HIAECs) (obtained from ATCC; catalog no. CC-2545) were grown to confluence in 25 cm^2 flasks in EGM-2 medium. Eighteen hours prior to the experiment, the medium was replaced with EGM-2 medium containing 0.1% FCS plus heparin, GA1000 (gentamycin) and bovine pituitary extract (all from Cambrex) to place the cells in a resting state. To perform the experiment the medium was aspirated from the flasks, and the following additives were added to the flasks in fresh medium (total volume of 5 ml/flask): 15 μg/ml of the compound of formula II (Cpd II) or 10 μM LY 294002. The flasks were incubated 2 hours at 37° C., 5% CO2. After this incubation, VEGF or TNFα was added to give a final concentration 10 ng/ml, and the flasks were incubated for an additional 30 minutes. Then, the amount of NFκB was determined using a TransAM™ NFκB p65/NFκB p50 Transcription Factor Assay Kit and a Nuclear Extract Kit from Active Motif North America, Carlsbad, Calif., as described in Example 12.

IL-8 [3] = assay: IL-8 release by PHA-stimulated PBL (ELISA); type: cell-based, human; conditions: Example 4, GR-192 PBL; 15 μg/ml Cpd II, 10 μM Dex; PHA 2 μg/ml, 96 hours; FIG. 8
Method: Whole blood was drawn from GR-192, a normal human volunteer, and processed as described in Example 1 to give heat-inactivated serum and PBL. […] After this incubation, PHA was added to give a final concentration of 2 μg/ml, and the cells were incubated for an additional 96 hours at 37° C., 5% CO2. All cultures were performed in triplicate. Cells were then removed by centrifugation at 1000 rpm for 10 minutes, and the culture medium collected.
To perform the ELISA, matched pairs of antibodies against human IL-8 were purchased from Pierce Biotechnology and Biosource, respectively. ELISA strip well plates were coated with 2 μg/ml of antibody to IL-8 (in phosphate-buffered saline (PBS)) overnight at room temperature. The plates were then blocked using a 4% BSA solution in PBS for one hour, followed by the addition of 50 μl of experimental culture medium per well in duplicate. The plates were incubated at room temperature for one hour and then washed using 50 mM Tris pH 8.0 with 0.1% Tween 20. Then, solutions of 100 ng/ml biotinylated second antibody to IL-8 were made in blocking buffer, and 100 μl were added per well. The plates were incubated for 1 hour and washed again. […] OD was determined using microplate reader with a 450 nm filter.

TNFα = TNFα release from LPS-stimulated THP-1 monocytes (ELISA); type: cell-based; conditions: THP-1, LPS 200 ng/ml; Cpd II 15 μg/ml, Dex 10 μM
Method: (§1) THP-1 is a monocyte cell line obtained from American Type Culture Collection (ATCC) (catalog no. TIB-202). […] After 1 hour, lipopolysaccharide (LPS) (obtained from Sigma) was added to the cultures to give a final concentration of 200 ng/ml, and the cells were then incubated for an additional 4 hours or for an additional 24 hours. After the incubation, the cells were centrifuged, and the supernatants were collected. The concentrations of IL-8 and TNFα in the supernatants were determined by ELISA.
The TNFα ELISA was performed as described in Example 2.

HUVECs = assay: HUVEC proliferation (Promega cell titer assay); type: cell-based, human; conditions: 48 hours; for Mean OD at 530 nm: HUVECs
Method: Passage 4 HUVECs, lot number 9713, in either EGM-2 plus 50 ng/ml vascular endothelial growth factor (VEGF) (obtained from Sigma) or in EGM-2 complete medium (containing 2% FCS, hydrocortisone, human fibroblast growth factor B, VEGF, recombinant insulin-like growth factor-1, ascorbate, human […], gentamycin and heparin) (obtained from Cambrex) were put into the wells of a 96-well tissue culture plate at 5,000 cells/well. The following additives were added to the cells: water (vehicle control); 5 μg/ml of the compound of formula II (Cpd II); 15 μg/ml Cpd II; or 30 μg/ml of Cpd II. After 48 hours of culture at 37° C. and 5% CO2, cell proliferation was evaluated by the Promega cell titer assay as described in Example 1, except that the plates were incubated for only 2 hours after addition of the Promega cell titer reagent.

IL-8 [4] = assay: IL-8 release from LPS-stimulated THP-1 monocytes (ELISA); type: cell-based; conditions: THP-1, LPS 200 ng/ml; Cpd II 15 μg/ml, Dex 10 μM
Method: as §1
The concentrations of IL-8 in the supernatants were determined by ELISA performed as described in Example 4.

COC(=O)C(c1ccc(-c2ccccc2)cc1)C1CCCCN1 (centres unmarked) [Cpd II]
IL-8 production by the TRiPS cell line (IL-8 [1]): no effect | Relative Percentage Dead/Live ([2]; 7.5 μg/ml): 16.74% ± 2.15% | Relative Percentage Dead/Live ([2]; 15 μg/ml): 40.79% ± 1.81% | inhibition at 15 µg/mL (NFκB): 70% | IL-8 release induced by PHA (IL-8 [3]): significantly inhibited IL-8 release | release of TNFα from the LPS-stimulated monocytes (TNFα): significantly inhibited the release of TNFα | number of cells detected in the wells (HUVECs; HUVECs, 5, 15, 30 μg/ml): reduced the number of cells detected in the wells in a dose-dependent manner | Mean OD at 530 nm (HUVECs; EGM-2 + VEGF, 5 μg/ml, vehicle 0.224 ± 0.011): 0.189 ± 0.014 | Mean OD at 530 nm (HUVECs; EGM-2 + VEGF, 15 μg/ml, vehicle 0.224 ± 0.011): 0.132 ± 0.022 | Mean OD at 530 nm (HUVECs; EGM-2 + VEGF, 30 μg/ml, vehicle 0.224 ± 0.011): 0.046 ± 0.012 | Mean OD at 530 nm (HUVECs; EGM-2 + growth factors, 5 μg/ml, vehicle 0.299 ± 0.011): 0.271 ± 0.022 | Mean OD at 530 nm (HUVECs; EGM-2 + growth factors, 15 μg/ml, vehicle 0.299 ± 0.011): 0.239 ± 0.019 | Mean OD at 530 nm (HUVECs; EGM-2 + growth factors, 30 μg/ml, vehicle 0.299 ± 0.011): 0.066 ± 0.003 | release of IL-8 from the LPS-stimulated monocytes (IL-8 [4]): significantly inhibited the release of IL-8
